# Experimental data reported in US9623083B2, “Method to screen for an activator of adipose-resident NK cells” (Cornell University, priority 2011, dated 2017).
# Assays:
# [1] = test system: adipose-resident NKT cells; test: In vivo effectiveness as activator of adipose-resident NKT cells
# [2] = test system: M2 genes in adipose tissue; test: Q-PCR analysis of M1 and M2 genes in white adipose tissue; assay type: in vivo, mice
# Method: RNA extraction from cells and murine tissues, and Q-PCR were carried out as previously described (36) using Trizol (Invitrogen) for liver, and Trizol plus QIAeasy kit (Qiagen) for adipose tissues with DNase digestion (Roche). Q-PCR data collected on the Roche LightCycler 480 were normalized to ribosomal 132 gene in the corresponding sample.
# (§1) Accordingly, 6 w-old male mice were fed with either 13% LFD or 60% HFD for indicated period of time from 4 d to 24 w as described in Example 1. αGalCer (Toronto Research Chemicals) was dissolved in pyridine at 2.5 mg/ml and then diluted 1:250 in PBS to prepare 10 μg/ml working solution prior to use. In all experiments, mice were injected i.p. with 200 μl αGalCer (100 ng αGalCer per g body weight). The vehicle control group was injected with PBS with 0.4% pyridine. The dosage and frequency of αGalCer injection were the same for all the gain-of-function experiments unless otherwise indicated. HFD mice were injected with αGalCer or vehicle at day 0 and day 2. GTT was conducted on day 4, followed by sacrificing the mice on (day 5) to harvest adipose tissues (or other tissues as indicated), which were processed for immune cell analysis, frozen for Q-PCR or Western blot, or fixed for H&E staining Flow cytometric analyses of NKT levels and other immune cells were performed on day 5.
# Arg1 protein, p-Y STAT6 = test: Western blot of Arg1 and p-Y STAT6 in WAT and liver; assay type: in vivo, mice
# Method: Tissues or cells were lysed in Tris-based lysis buffer containing 1% Triton X-100. Normally, 15-30 μg of total lysates unless otherwise indicated were used in a mini SDS-PAGE as described (Sha et al. (2009) Cell Metab 9, 556-564). Antibodies specific for (p-Tyr641) STATE and (p-Tyr705) STAT3 (Cell signaling) and Arginase 1 (N-20, Santa Cruz sc-18351) were used at 1:500-2000 and for the loading control HSP90 (Santa Cruz) was used at 1:6000. The secondary antibody goat anti-rabbit IgG HRP (1:10,000) was from Bio-Rad. Quantitation of band density was carried out using the ImageLab software of the Bio-Rad ChemiDoc XRS+system following exposure.
# as §1
# gene expression in WAT = test: Microarray analysis of WAT; assay type: in vivo, mice; details: 4 d HFD
# Method: Microarray analyses of WAT were performed as described (39) with four groups of mice (n=3-4 per cohort) as follows: WT+veh, WT+αGalCer, CD1d^−/−+veh and CD1d^−/−+αGalCer. All mice were on 4 d HFD feeding with two αGalCer injections at day 0 and day 2. […] Data have been deposited into the GEO datasets (GSE36032). The array data of IL-4-treated mouse BMDM for 10 days were obtained from the Gene Expression Omnibus (GEO) database with accession number GSE25088 (Szanto A. et al. (2010)).
# [3] = literature (Berzins 2011; Giaccone 2002); cited from earlier work
# [4] = Body and epididymal fat weights; assay type: in vivo; details: HFD mice, FIG. 4B
# Method: as §1
# [5] = Fasting insulin levels (ELISA); assay type: in vivo; details: 8 w HFD mice, FIG. 6D
# Method: Blood was collected in animals upon 6 h fasting during the day. Circulating insulin levels were measured using the kit from Millipore per supplier's protocols.
# (§2) For GTT, mice were fasted for 16-18 h followed by injection of glucose (Sigma) at 1 g/kg body weight. Blood glucose was monitored using One-Touch Ultra Glucometer. Fasting insulin levels were measured following a 6 h fast.
# [6] = one injection of αGalCer, Ohmura et al. (2010); cited from earlier work
# [7] = Glucose tolerance test (GTT) after αGalCer injection; assay type: in vivo, mice
# Method: as §1, §2
# [8] = test system: cells surrounding adipocytes; test: H&E histology of adipose tissue; assay type: in vivo, mice; details: WT, 4 d HFD, FIG. 3D; abolished by CD1d deficiency
# Method: Adipose tissues were fixed in 4% formaldehyde, embedded in paraffin and sectioned by the Cornell Histology Core Facility. Pictures were taken using the Axiovert 200M microscope (Zeiss).
# as §1
# [9] = test system: NKT cells in adipose tissue; test: Flow cytometric analysis of immune cells in adipose tissue after αGalCer challenge; assay type: in vivo, mice
# Method: Single-cell suspensions of stromal vascular cells (SVC) from adipose tissue were prepared as described (Xia et al. (2011)). SVCs from two fat pads per mouse were diluted in 120-200 μl PBS, from which one tenth was used for the subsequent staining Following incubation with anti-CD16/CD32 antibody to block Fc receptors, 1×10^6 cells were incubated with 20 μl of antibodies diluted at optimal concentrations for 20 min at 4° C. Cells were washed three times with PBS and then resuspended in 200 μl PBS for analysis using the FACSCalibur Flow Cytometer (BD Biosciences). NKT cells were defined as CD45^+αGalCer-loaded CD1d-tetramer^+CD3/TCRβ^+ lymphocytes; CD8^+ T cells were defined as CD8^+CD45^+ cells; macrophages were as CD45^+F4/80^+CD11b^+ cells. During the run, samples were completely run out and the total number of CD45^+ lymphocytes or immune cells were gated and counted. The total cell number for various immune cells per g adipose tissue was calculated as (% cells in total CD45^+ lymphocytes or immune cells×total CD45^+ lymphocytes or immune cells)/g adipose tissue.
# For the Brdu staining, mice were injected (i.p.) with αGalCer (100 ng per g body weight) at day 0, and then with BrdU (Sigma, 0.6 mg/10 g body weight) at 36 h and 12 h prior to sacrifice at day 3. SVC of adipose tissues were purified, labeled with cell surface antibodies and then fixed in cold 70% ethanol at −20° C. overnight. The rest of steps were performed as the regular flow cytometric analysis using BrdU-FITC antibody and DNA dye 7-AAD (Anaspec).
# as §1
smiles,measurement,setting,value
"CCCCCCCCCCCCCCCCCCCCCCCC(=O)NC(COC1O[C@H](CO)[C@H](O)[C@H](O)[C@H]1O)C(O)C(O)CCCCCC (stereo partly shown) [OCH, tetracosanoic acid 1-galactopyranosyloxy-3,4-dihydroxydec-2-yl amide]",effectiveness in vivo,[1],not effective in vivo
"CCCCCCCCCCCCCCCCCCCCCCCCCC(=O)N[C@@H](CO[C@H]1O[C@H](CO)[C@H](O)[C@H](O)[C@H]1O)[C@H](O)[C@H](O)CCCCCCCCCCCCCC [αGalCer, (2S,3S,4R)-1-O-(alpha-D-galactosyl)-N-hexacosanoyl-2-amino-1,3,4-octadecanetriol]",Il4 mRNA levels in WAT,"[2]; 4 d HFD, NKT-dependent, FIG. 9F",highly induced
same,αGalCer-mediated induction of M2 genes in WAT of myeloid cell-specific PPARγ or PPARβ/δ-deficient animals,"[2]; 4 day HFD, vs WT control littermates, FIG. 12C",not affected
same,"αGalCer-mediated induction of M2 genes Arg1, Chi3l3, Pdcd1Ig2 and Arg1 protein in WAT with loss of IL-4","[2]; IL-4-/- mice, 4 d HFD, FIG. 11D-F",markedly attenuated
same,"induction of a subset of M2 genes (Arg1, Chi313, Pdcd1Ig2) in adipose tissue","[2]; all three HFD models, NKT-dependent, FIGS. 7A-B and 8A",50-100 fold
same,Arg1 protein in CD1d-/- WAT,"Arg1 protein, p-Y STAT6; CD1d-/- mice, FIG. 7C-D",abolished
same,tyrosine phosphorylation (p-Y) of STAT6 in WAT following αGalCer with loss of IL-4,"Arg1 protein, p-Y STAT6; IL-4-/- mice, 4 d HFD, FIG. 11E-F",completely abolished
same,Arg1 protein in WT WAT,"Arg1 protein, p-Y STAT6; WT mice, HFD, FIG. 7C-D",significantly induced
same,hepatic STAT6 activation,"Arg1 protein, p-Y STAT6; liver of WT mice, 4 d HFD, FIG. 11G",not activated
same,Arg1 protein induction in the liver,"Arg1 protein, p-Y STAT6; liver, 4 d or 8 w HFD, FIG. 8B",not observed in the liver
same,number of genes whose expression was significantly increased by more than 2-fold in WAT,"gene expression in WAT; WT vs CD1d-/-, NKT-dependent, FIG. 9A","1,556 genes"
same,"Arg1 expression, αGalCer vs. veh in WT WAT","gene expression in WAT; microarray, FIG. 9B",32 fold
same,"Chi313 expression, αGalCer vs. veh in WT WAT","gene expression in WAT; microarray, FIG. 9B",138 fold
same,"pdcd1Ig2 expression, αGalCer vs. veh in WT WAT","gene expression in WAT; microarray, FIG. 9B",53 fold
same,tolerability in humans,[3],well tolerated
same,toxicity,[3],not toxic
same,effect on body and epididymal fat weights,[4],no discernible effect
same,effect on fasting insulin levels,[5],no effect
same,effect on glucose tolerance in HFD animals,[6],mild effect
same,effect on glucose tolerance in CD1d-/- mice,"[7]; CD1d-/- mice, 4 d HFD, FIG. 6E",no effect
same,αGalCer effect in glucose tolerance in IL-4-/- mice,"[7]; IL-4-/- mice, 4 d HFD, FIG. 11B-C",completely abolished
same,systemic glucose tolerance,"[7]; WT mice at all stages of HFD (4 d, 8 w, 24 w), FIGS. 6A-C",improved systemic glucose tolerance
same,effect on glucose tolerance in mice on LFD,"[7]; WT mice on LFD, FIG. 6F",no effect on glucose tolerance
same,number of cells surrounding adipocytes in WAT sections,[8],significant increase
same,macrophages and CD8+ T cells in adipose tissue,"[9]; 4 d HFD mice, FIG. 5A",milder increases
same,increase in percentage of NKT cells in adipose tissue,"[9]; 4 d HFD mice, αGalCer 100 ng per g body weight i.p. day 0 and day 2, FIG. 3C",> 4 fold
same,increase in total cell number of NKT cells in adipose tissue,"[9]; 4 d HFD mice, αGalCer i.p. day 0 and day 2, FIG. 5A",70 fold
same,reduction of total lymphocytes in WAT of IL-4-/- mice relative to WT cohorts after αGalCer,"[9]; 4 d HFD, FIG. 12B",approximately 40%
